The target in one data set is T1, FPR2 (Homo sapiens, UniProt P25090).
T1 construct: expressed in transfected cells; host or cells: HL60 (human promyelocytic leukemia), stably transfected; gift from Dr. Marie-Josephe Rabiet
T1 sequence (P25090 1-351): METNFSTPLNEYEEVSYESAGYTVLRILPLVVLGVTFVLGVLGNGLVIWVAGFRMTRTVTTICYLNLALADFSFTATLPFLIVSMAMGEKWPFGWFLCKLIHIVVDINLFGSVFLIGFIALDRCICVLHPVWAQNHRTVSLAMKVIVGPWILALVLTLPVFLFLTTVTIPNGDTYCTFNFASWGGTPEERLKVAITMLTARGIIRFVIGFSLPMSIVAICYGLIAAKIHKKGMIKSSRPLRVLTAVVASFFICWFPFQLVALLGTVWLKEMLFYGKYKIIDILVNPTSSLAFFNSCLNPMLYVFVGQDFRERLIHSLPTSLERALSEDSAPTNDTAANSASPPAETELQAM
In words: Ca2+ mobilization in FPR2-transfected HL60 cells. It counts as cell-based. The conditions noted are these: for Emax: HL-60, read-out: FPR2-HL60 Efficacy (converted). A general note: Calcium assays in cells follow changes in intracellular calcium, usually with a dye or a luminescent sensor.

Another data set deals with T2, FPR1 (Homo sapiens, UniProt P21462).
T2 construct: expressed in transfected cells; host or cells: HL60 (human promyelocytic leukemia), stably transfected; gift from Dr. Marie-Josephe Rabiet
T2 sequence (P21462 1-350): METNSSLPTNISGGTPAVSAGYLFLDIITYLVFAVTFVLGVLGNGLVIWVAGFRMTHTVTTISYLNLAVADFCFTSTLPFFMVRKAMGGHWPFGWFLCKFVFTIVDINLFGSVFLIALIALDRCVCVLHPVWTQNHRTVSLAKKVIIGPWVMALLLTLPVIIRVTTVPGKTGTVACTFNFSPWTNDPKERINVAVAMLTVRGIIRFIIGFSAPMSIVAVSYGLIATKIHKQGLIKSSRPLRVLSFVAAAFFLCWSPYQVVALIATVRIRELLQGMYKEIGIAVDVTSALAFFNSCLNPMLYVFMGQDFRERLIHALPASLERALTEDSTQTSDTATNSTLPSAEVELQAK
Briefly: Ca2+ mobilization in FPR1-transfected HL60 cells. It counts as cell-based. The conditions noted are these: for Emax: HL-60, read-out: FPR1-HL60 Efficacy (converted).

In another data set the test system is human neutrophils (hPMN). Briefly: Ca2+ mobilization in human neutrophils (hPMN). It counts as cell-based. The conditions noted are these: Neutrophil; for Emax: read-out: hPMN Efficacy (converted). From the text: Blood was collected from healthy donors in accordance with a protocol approved by the Institutional Review Board at Montana State University. Neutrophils were purified from the blood using dextran sedimentation, followed by Histopaque 1077 gradient separation and hypotonic lysis of red blood cells. Isolated neutrophils were washed twice and resuspended in HBSS^-. Neutrophil preparations were routinely >95% pure, as determined by light microscopy, and >98% viable, as determined by trypan blue exclusion.
Changes in intracellular Ca^2+ were measured with a FlexStation II scanning fluorometer (Molecular Devices, Sunnyvale, CA, USA). The cells, suspended in Hank’s balanced salt solution without Ca^2+ and Mg^2+ but with 10 mM HEPES (HBSS^−), were loaded with 1.25 μg/mL Fluo-4 AM dye and incubated for 30 min in the dark at 37 °C. After dye loading, the cells were washed with HBSS^- containing 10 mM HEPES, resuspended in HBSS^+ containing Ca^2+, Mg^2+, and 10 mM HEPES (HBSS^+), and aliquoted into the wells of flat-bottom, half-area-well black microtiter plates (2 × 10^5 cells/well). For the evaluation of direct agonist activity, compounds of interest were added from a source plate containing dilutions of test compounds in HBSS^+, and changes in fluorescence were monitored (λex = 485 nm, λem = 538 nm) every 5 s for 240 s at room temperature after the automated addition of compounds. Maximum change in fluorescence during the first 3 min, expressed in arbitrary units over baseline, was used to determine a response. […] Curve fitting (5–6 points) and calculation of median effective inhibitory concentrations (IC50) were performed by nonlinear regression analysis of the dose–response curves generated using Prism 9 (GraphPad Software, Inc., San Diego, CA, USA).

Data on 15 molecules can be found in paper PMC8587000, “Pyridinone Derivatives as Interesting Formyl Peptide Receptor (FPR) Agonists for the Treatment of Rheumatoid Arthritis” (Molecules, 2021).

Description for FPR1: (§1) Human promyelocytic leukemia HL60 cells stably transfected with FPR1 (FPR1-HL60 cells) or FPR2 (FPR2-HL60 cells) (kind gift from Dr. Marie-Josephe Rabiet, Université Joseph Fourier, Grenoble, France) were cultured in RPMI 1640 medium supplemented with 10% heat-inactivated fetal calf serum, 10 mM HEPES, 100 μg/mL streptomycin, 100 U/mL penicillin, and G418 (1 mg/mL). G418 was removed in the last round of culture before assays were performed.
Description for FPR2: as §1

Turning to `Cc1c(C(=O)O)cc(C#N)c(=O)n1CC(=O)Nc1ccc(Br)cc1` [Compound 2, 1-{2-[(4-Bromophenyl)amino]-2-oxoethyl}-5-cyano-2-methyl-6-oxo-1,6-dihydropyridine-3-carboxylic acid], the melting point was 180 to 182 °C (dec.). On FPR2, the EC50 was 9.2 ± 1.9 µM and the Emax was 100%. For the same molecule, at FPR1, the EC50 was 3.5 ± 0.9 µM and the Emax is 100%. Also, in the data set with human neutrophils (hPMN), the EC50 came out at 4.3 ± 1.5 µM and the Emax is 120%.

Turning to `CCCOC(=O)c1cc(C#N)c(=O)n(CC(=O)Nc2ccc(Br)cc2)c1C` [Compound 4a, Propyl 1-{2-[(4-bromophenyl)amino]-2-oxoethyl}-5-cyano-2-methyl-6-oxo-1,6-dihydropyridine-3-carboxylate], the melting point is 193 to 195 °C (dec.). Also, on FPR2, the concentration for a half-maximal effect (EC50) was found to be 3.2 ± 0.6 µM and the Emax is 140%. For the same molecule, on FPR1, the EC50 turned out to be 16.3 ± 3.4 µM and the Emax was 115%. In the data set with human neutrophils (hPMN), the EC50 turned out to be 6.4 ± 1.7 µM and the Emax is 115%.

For the molecule `CCCCOC(=O)c1cc(C#N)c(=O)n(CC(=O)Nc2ccc(Br)cc2)c1C` [Compound 4b, Butyl 1-{2-[(4-bromophenyl)amino]-2-oxoethyl}-5-cyano-2-methyl-6-oxo-1,6-dihydropyridine-3-carboxylate], the melting point was 109 to 111 °C (dec.). Further, on FPR2, it took 18.3 ± 4.2 µM to reach a half-maximal effect (EC50) and the Emax was 75%. On FPR1, a half-maximal response (EC50) required 29.7 ± 4.6 µM and the Emax was 70%. Besides, in the data set on human neutrophils (hPMN), the EC50 was found to be 27.9 ± 3.2 µM and the Emax was 110%.

Consider `Cc1c(C(=O)OC(C)C)cc(C#N)c(=O)n1CC(=O)Nc1ccc(Br)cc1` [Compound 4c, Isopropyl 1-{2-[(4-bromophenyl)amino]-2-oxoethyl}-5-cyano-2-methyl-6-oxo-1,6-dihydropyridine-3-carboxylate], for which the melting point was in the range of 223 to 224 °C. For the same molecule, on FPR2, the midpoint of the response, the EC50, lay at 8.4 ± 1.7 µM and the Emax was 85%. Further, on FPR1, it took 7.7 ± 1.7 µM to reach a half-maximal effect (EC50) and the Emax was 180%. Moreover, in the data set with human neutrophils (hPMN), the EC50 turned out to be 10.2 ± 1.9 µM and the Emax was 120%.

Consider `COc1cccc(COC(=O)c2cc(C#N)c(=O)n(CC(=O)Nc3ccc(Br)cc3)c2C)c1` [Compound 4d, 3-Methoxybenzyl 1-{2-[(4-bromophenyl)amino]-2-oxoethyl}-5-cyano-2-methyl-6-oxo-1,6-dihydropyridine-3-carboxylate], for which the 50% effective concentration (EC50) on FPR2 came out at 14.1 ± 3.8 µM; on FPR1 it was 20.8 ± 3.7 µM; with human neutrophils (hPMN) it was 12.7 ± 3.9 µM. For the same molecule, the Emax at FPR2 is 100%; on FPR1 it was 85%; with human neutrophils (hPMN) it was 65%.

On to `COc1cccc(CCOC(=O)c2cc(C#N)c(=O)n(CC(=O)Nc3ccc(Br)cc3)c2C)c1` [Compound 4e, 3-Methoxyphenethyl 1-{2-[(4-bromophenyl)amino]-2-oxoethyl}-5-cyano-2-methyl-6-oxo-1,6-dihydropyridine-3-carboxylate], for which the concentration for a half-maximal effect (EC50) on FPR2 came to 17.3 ± 4.1 µM; on FPR1 it was 24.1 ± 5.2 µM; with human neutrophils (hPMN), 17.9 ± 4.2 µM. The values for the Emax at FPR2, at FPR1 and in the data set with human neutrophils (hPMN) were 75%, 70% and 65%, respectively.

For `Cc1c(C(N)=O)cc(C#N)c(=O)n1CC(=O)Nc1ccc(Br)cc1` [Compound 6, 1-{2-[(4-Bromophenyl)amino]-2-oxoethyl}-5-cyano-2-methyl-6-oxo-1,6-dihydropyridine-3-carboxamide], the values for the EC50 at FPR2, at FPR1 and in the data set on human neutrophils (hPMN) were 8.4 ± 0.6 µM, 27.1 ± 4.2 µM and 29.1 ± 3.6 µM, respectively. For the same molecule, the Emax was 125% on FPR2, 60% at FPR1 and 90% in the data set on human neutrophils (hPMN).

On to `CNC(=O)c1cc(C#N)c(=O)n(CC(=O)Nc2ccc(Br)cc2)c1C` [Compound 8a, 1-{2-[(4-Bromophenyl)amino]-2-oxoethyl}-5-cyano-N,2-dimethyl-6-oxo-1,6-dihydropyridine-3-carboxamide], for which the melting point is > 300 °C (dec.). On FPR2, the concentration for a half-maximal effect (EC50) was found to be 1.3 ± 0.4 µM and the Emax is 115%. Besides, at FPR1, the EC50 worked out at 2.2 ± 0.6 µM and the Emax was 105%. Besides, in the data set with human neutrophils (hPMN), it took 4.9 ± 1.2 µM to reach a half-maximal effect (EC50) and the Emax is 105%.

With `CCNC(=O)c1cc(C#N)c(=O)n(CC(=O)Nc2ccc(Br)cc2)c1C` [Compound 8b, 1-{2-[(4-Bromophenyl)amino]-2-oxoethyl}-5-cyano-N-ethyl-2-methyl-6-oxo-1,6-dihydropyridine-3-carboxamide], the melting point was 290 °C (dec.). At FPR2, the EC50 was 3.3 ± 0.2 µM and the Emax was 120%. In addition, on FPR2 (ratio of EC50 FPR1-HL60 / FPR2-HL60), the “selectivity index (SI) FPR1/FPR2” value turned out to be 6. Also, on FPR1, the EC50 was determined as 21.2 ± 1.2 µM and the Emax was 145%. In addition, in the data set with human neutrophils (hPMN), the EC50 is 11.4 ± 3.1 µM and the Emax is 80%.

For the molecule `COc1ccc(C(=O)c2cc(C(N)=O)c(=O)n(CC(=O)Nc3ccc(Br)cc3)c2C)cc1` [Compound 10, 1-{2-[(4-bromophenyl)amino]-2-oxoethyl}-5-(4-methoxybenzoyl)-6-methyl-2-oxo-1,2-dihydropyridine-3-carboxamide], the EC50 at FPR2 worked out at 3.4 ± 0.7 µM; at FPR1, 4.4 ± 0.5 µM; in the data set with human neutrophils (hPMN), 7.5 ± 2.1 µM. Also, the Emax was 130% at FPR2, 105% on FPR1 and 120% in the data set with human neutrophils (hPMN).

Turning to `COc1ccc(C(=O)c2cc(C#N)c(=O)n(CC(=O)Nc3ccc(Br)cc3)c2C)cc1` [Compound 11, N-(4-bromophenyl)-2-[3-cyano-5-(4-methoxybenzoyl)-6-methyl-2-oxopyridin-1(2H)-yl]acetamide], the results for the EC50 on FPR2, on FPR1 and with human neutrophils (hPMN) were 1.9 ± 0.2 µM, 5.2 ± 0.4 µM and 7.8 ± 2.2 µM, respectively. The Emax was 110% at FPR2, 105% at FPR1 and 120% with human neutrophils (hPMN).

The molecule `COc1cccc(-c2cc(C#N)c(=O)n(CC(=O)Nc3cccc(O)c3)c2C)c1` [Compound 13b, 2-[3-Cyano-5-(3-methoxyphenyl)-6-methyl-2-oxopyridin-1(2H)-yl]-N-(3-hydroxyphenyl) acetamide] came in with a melting point of 128 to 130 °C.

Turning to `COc1cccc(-c2cc(C#N)c(=O)n(CC(=O)Nc3ccc(O)cc3)c2C)c1` [Compound 13c, 2-[3-Cyano-5-(3-methoxyphenyl)-6-methyl-2-oxopyridin-1(2H)-yl]-N-(4-hydroxyphenyl) acetamide], the melting point was 127 to 129 °C.

For `Cc1c(-c2cccc(O)c2)cc(C#N)c(=O)n1CC(=O)Nc1cccc(O)c1` [Compound 14b, 2-[3-Cyano-5-(3-hydroxyphenyl)-6-methyl-2-oxopyridin-1(2H)-yl]-N-(3-hydroxyphenyl) acetamide], the melting point was 187 to 189 °C (dec.). For the same molecule, on FPR2, the EC50 was found to be 37.6 ± 5.6 µM and the Emax is 150%. For the same molecule, on FPR1, the EC50 was determined as 40.1 ± 7.2 µM and the Emax is 50%.

For `Cc1c(-c2cccc(O)c2)cc(C#N)c(=O)n1CC(=O)Nc1ccc(O)cc1` [Compound 14c, 2-[3-Cyano-5-(3-hydroxyphenyl)-6-methyl-2-oxopyridin-1(2H)-yl]-N-(4-hydroxyphenyl) acetamide], the melting point is 232 to 234 °C (dec.).

For orientation: EC50 means the concentration at which the effect is half-maximal. Read a high EC50 as weaker potency. By melting point is commonly meant the temperature, or range, at which the solid turns liquid.
